Data as given in PubChem BioAssay AID2060607 (Molecular Pharmacology Branch, DTP, NCI, 2025).
Several values for one entry are separate records, joined by “and”; a condition that tells them apart may be missing. Equal entries are not always repeated.

Tested on: 876862-298-R-J1-PDC complex spheroids, viability % test/control
Assay: Anticancer human tumor 876862-298-R-J1-PDC patient-derived endometrial carcinoma cell line growth inhibition [CLK]
Conditions: for viability, T/C: stronger effect = lower value
Procedure, shortened: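 Multi-cell-type spheroids combined patient-derived tumor cells with HUVEC endothelial cells and human mesenchymal stem cells. Paired agents were dosed in half-log steps down from about clinical Cmax, or from 10 microM where Cmax was unknown.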
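Note: spheroids exposed to drugs for 7 days before readout.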
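Throughout, for viability, T/C: 100% = DMSO vehicle control wells.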

SMILES: CCN1CCN(Cc2ccc(Nc3ncc(F)c(-c4cc(F)c5nc(C)n(C(C)C)c5c4)n3)nc2)CC1 + CN1CCN(c2cc(C(=O)Nc3cc4cc(-c5cnn(C)c5)ccc4cn3)ccn2)CC1
- IC50 (curve of first compound, second compound 0.0316 µM): 678 nM
- IC50 (curve of first compound, second compound 0.1 µM): < 3.16 nM
- IC50 (curve of first compound, second compound 0.316 µM): < 3.16 nM
- IC50 (curve of first compound, second compound 1 µM): < 3.16 nM
- IC50 (curve of first compound, second compound 3.16 µM): < 3.16 nM
- IC50 (curve of first compound, second compound 10 µM): < 3.16 nM
- viability, T/C (second compound 0.0316 µM, first compound 0.00316 µM): 90.2%
- viability, T/C (second compound 0.0316 µM, first compound 0.01 µM): 81.3%
- viability, T/C (second compound 0.0316 µM, first compound 0.0316 µM): 73.3%
- viability, T/C (second compound 0.0316 µM, first compound 0.1 µM): 74.8%
- viability, T/C (second compound 0.0316 µM, first compound 0.316 µM): 52.3%
- viability, T/C (second compound 0.0316 µM, first compound 1 µM): 47.5%
- viability, T/C (second compound 0.1 µM, first compound 0.00316 µM): 47%
- viability, T/C (second compound 0.1 µM, first compound 0.01 µM): 45%
- viability, T/C (second compound 0.1 µM, first compound 0.0316 µM): 44.1%
- viability, T/C (second compound 0.1 µM, first compound 0.1 µM): 47.3%
- viability, T/C (second compound 0.1 µM, first compound 0.316 µM): 40.9%
- viability, T/C (second compound 0.1 µM, first compound 1 µM): 43.3%
- viability, T/C (second compound 0.316 µM, first compound 0.00316 µM): 5.03%
- viability, T/C (second compound 0.316 µM, first compound 0.01 µM): 5.13%
- viability, T/C (second compound 0.316 µM, first compound 0.0316 µM): 6.69%
- viability, T/C (second compound 0.316 µM, first compound 0.1 µM): 7.27%
- viability, T/C (second compound 0.316 µM, first compound 0.316 µM): 9.15%
- viability, T/C (second compound 0.316 µM, first compound 1 µM): 9.4%
- viability, T/C (second compound 1 µM, first compound 0.00316 µM): 0.94%
- viability, T/C (second compound 1 µM, first compound 0.01 µM): 1.28%
- viability, T/C (second compound 1 µM, first compound 0.0316 µM): 1.38%
- viability, T/C (second compound 1 µM, first compound 0.1 µM): 1.66%
- viability, T/C (second compound 1 µM, first compound 0.316 µM): 2.25%
- viability, T/C (second compound 1 µM, first compound 1 µM): 3.04%
- viability, T/C (second compound 3.16 µM, first compound 0.00316 µM): 1.66%
- viability, T/C (second compound 3.16 µM, first compound 0.01 µM): 0.97%
- viability, T/C (second compound 3.16 µM, first compound 0.0316 µM): 1.47%
- viability, T/C (second compound 3.16 µM, first compound 0.1 µM): 1.34%
- viability, T/C (second compound 3.16 µM, first compound 0.316 µM): 2.18%
- viability, T/C (second compound 3.16 µM, first compound 1 µM): 3.2%
- viability, T/C (second compound 10 µM, first compound 0.00316 µM): 0.6%
- viability, T/C (second compound 10 µM, first compound 0.01 µM): 0.92%
- viability, T/C (second compound 10 µM, first compound 0.0316 µM): 1.95%
- viability, T/C (second compound 10 µM, first compound 0.1 µM): 2.18%
- viability, T/C (second compound 10 µM, first compound 0.316 µM): 1.88%
- viability, T/C (second compound 10 µM, first compound 1 µM): 2.14%

SMILES: CC(=O)O[C@H]1C(=O)[C@@]2(C)[C@H]([C@H](OC(=O)c3ccccc3)[C@]3(O)C[C@H](OC(=O)[C@H](O)[C@@H](NC(=O)c4ccccc4)c4ccccc4)C(C)=C1C3(C)C)[C@]1(OC(C)=O)CO[C@@H]1C[C@@H]2O
- viability, T/C (compound 0.0316 µM): 25.9% and 26.5%
- viability, T/C (compound 0.1 µM): 23.7% and 22.9%
- viability, T/C (compound 0.316 µM): 23% and 20%
- viability, T/C (compound 1 µM): 25.4% and 25.1%
- viability, T/C (compound 3.16 µM): 29.2% and 23.1%
- viability, T/C (compound 10 µM): 32.2% and 26.1%
- IC50 (curve of compound): < 31.6 nM
